# Measured values: article PMC8717366, “Synthesis and Pharmacological Characterization of Visabron, a Backbone Cyclic Peptide Dual Antagonist of α4β1 (VLA-4)/α9β1 Integrin for Therapy of Multiple Sclerosis” (JACS Au, 2021)
# Numbered stars: 1 amine (or outer) side, 2 acyl side, 3 side chain; on linkers, the order of the positions; unused ones are H or OH. Bridge positions count the residues as written; N and C are the ends. Square brackets hold non-standard residues; d marks the D form. Peptide text beside a SMILES is read from it. CO = O=C([*:1])[*:2]; Nlys = NCCCCNCC(=O)O
# Tests used:
# EGFR = biological target: T1, EGFR (Homo sapiens, UniProt P00533); experiment: PhosphoSens CSox-based kinase assay, EGFR; type: biochemical; conditions: 1 mM, but not 0.1 mM; Figure 7
# T1 construct: purchased BPS BS 40187
# Experimental: Kinase activity was measured using the PhosphoSenstechnology (AssayQuant Technologies Inc., Marlborough, MA) as detailed in the Supporting Information. […]
# Visabron c (4-4) safety by in vitro evaluation using PhosphoSens - CSox based kinase assays:
# A powerful method was used to measure the activity of recombinant protein kinases using a homogeneous and continuous (kinetic) format, where the level of chelation-enhanced fluorescence (CHEF) that is directly proportional to the amount of phosphorylated, real-time sensors consisting of sulfonamido-oxine (Sox) chromophore, linked to a peptide or protein substrates of selective kinases 6. […]
# Kinase activity measurements: Kinase activity was measured continuously using the PhosphoSens® technology (AssayQuant Technologies Inc., Marlborough, MA) according to the manufacturers’ recommendations. This one-step homogeneous assay format uses chelation -enhanced fluorescence via optimized substrate sensors containing the unnatural fluorogenic amino -acid Sox. […]
# Final reaction conditions : Protein kinase activity was determined in 54 mM HEPES, pH 7.5, 1 mM ATP, 1.2 mM DTT, 0.012% Brij-35, 0.52 mM EGTA, 10 mM MgCl2, 1% glycerol, 0.2mg/ml BSA, and 15 μM Sox -based sensor. […]
# [1] = system: experimental autoimmune encephalomyelitis (EAE); experiment: MOG-induced EAE in C57BL/6 mice; type: in vivo, C57Bl/6 female mice
# Experimental: EAE was induced in C57bl/6 mice by immunization with MOG/CFA and injection of pertussis toxin as described in the Experimental Section. The body weight, neurological scores, and disease incidence were monitored daily for 35 days. Immunized mice (n = 10–14 in each group) were treated (i.p. injection) at time points indicated by arrows. Histology was performed on day 35 on all groups. Data shown are the mean ± SEM, evaluated by the nonparametric Kruskal–Wallis test followed by a Dunn’s postanalysis. All p-values <0.05 were considered statistically significant. (A) Neurological clinical score. Visabron c (4–4) (green) at a cumulative dose of 25 mg/kg (5 mg/kg every other day, for 8 days) and natalizumab (orange) at a cumulative dose of 120 mg/kg (24 mg/kg every other day, for 8 days). […] (E) Dose–response of treatment with visabron c (4–4). Inset: Mean neurological score of the different treatment groups at disease onset (days 15–17). […] (F) Inflammatory infiltrates (blue) in the spinal cord were evaluated by cell counting in H&E stained slices.
# C57Bl/6 female mice, 8 weeks old, obtained from the Harlan animal breeding center were used in the study and were maintained in the SPF unit of the Faculty of Medicine. EAE was induced by s.c. injection of 0.2 mL/mouse emulsion containing 200 μg of MOG35–55 peptide in saline and an equal volume of 5 mg/mL Complete Freund’s Adjuvant (CFA) containing 1 mg/mL heat-killed M. tuberculosis (H37Ra; Difco Laboratories, Detroit, MI) . The emulsification was made from equal parts of oil and liquid portions (1:1) in two syringes connected to each other with Leur lock, transferred to an insulin syringe, and 0.2 mL was injected to the right flank of each mouse. On the day of immunization, pertussis toxin (200 ng/mL) was injected i.p. at a volume dose of 0.2 mL/mouse. The injection of the pertussis toxin (i.p) was repeated after 48 h to boost the immune recognition reaction. From day four, natalizumab and Visabron c (4–4) were injected i.p. each other day, five times, and the weight, the neurological score and the disease incidence of the mice were monitored until 35 days after immunization. EAE scoring system: mice were observed daily for the appearance of neurological symptoms, which were scored as follows: 0, asymptomatic; 1, partial loss of tail tonicity; 1.5, limp tail; 2, hind limb weakness (right reflex); 3, ataxia; 4, early paralysis; 5, full paralysis; and 6, moribund or dead. The disease incidence was calculated as a percentage of the ratio of the number of new diseased mice per number of living mice at each time-point. In experiments to estimate cell infiltration in the spinal cord at 35 days postimmunization, the mice were euthanized by cervical dislocation and lumbar spinal cords were collected.
# T1 sequence (P00533 25-1210): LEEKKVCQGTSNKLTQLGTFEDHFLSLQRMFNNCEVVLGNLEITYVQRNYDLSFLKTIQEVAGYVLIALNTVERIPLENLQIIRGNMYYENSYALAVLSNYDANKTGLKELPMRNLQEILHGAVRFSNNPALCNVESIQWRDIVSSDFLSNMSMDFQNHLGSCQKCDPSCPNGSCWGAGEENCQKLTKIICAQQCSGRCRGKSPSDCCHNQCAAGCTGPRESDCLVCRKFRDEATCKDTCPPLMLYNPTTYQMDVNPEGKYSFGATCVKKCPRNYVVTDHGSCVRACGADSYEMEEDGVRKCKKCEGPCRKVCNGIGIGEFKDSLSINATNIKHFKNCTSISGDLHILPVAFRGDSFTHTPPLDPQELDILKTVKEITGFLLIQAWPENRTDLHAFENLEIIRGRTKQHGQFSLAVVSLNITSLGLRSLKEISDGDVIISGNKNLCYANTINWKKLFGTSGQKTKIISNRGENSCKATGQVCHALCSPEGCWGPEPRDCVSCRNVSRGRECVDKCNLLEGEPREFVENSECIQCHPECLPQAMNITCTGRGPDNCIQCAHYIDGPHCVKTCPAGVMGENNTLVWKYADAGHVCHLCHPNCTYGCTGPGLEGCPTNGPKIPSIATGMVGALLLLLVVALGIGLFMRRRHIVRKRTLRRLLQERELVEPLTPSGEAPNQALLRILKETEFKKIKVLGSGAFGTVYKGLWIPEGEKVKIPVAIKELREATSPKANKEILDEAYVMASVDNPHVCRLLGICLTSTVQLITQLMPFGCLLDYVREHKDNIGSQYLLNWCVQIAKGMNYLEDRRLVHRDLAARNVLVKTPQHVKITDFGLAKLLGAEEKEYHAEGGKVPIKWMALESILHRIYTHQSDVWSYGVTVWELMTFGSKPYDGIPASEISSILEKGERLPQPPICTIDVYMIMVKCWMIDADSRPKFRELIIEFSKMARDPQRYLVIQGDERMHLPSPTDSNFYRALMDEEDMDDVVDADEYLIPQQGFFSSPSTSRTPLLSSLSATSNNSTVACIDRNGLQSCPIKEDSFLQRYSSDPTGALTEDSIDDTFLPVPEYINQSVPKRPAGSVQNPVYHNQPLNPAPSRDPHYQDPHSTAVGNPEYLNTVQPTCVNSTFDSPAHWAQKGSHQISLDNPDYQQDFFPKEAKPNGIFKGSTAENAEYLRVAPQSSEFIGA
Compound,inhibition at 1000 µM (EGFR),"EAE-associated body weight decrease ([1]; 13–16 to 35 days postimmunization, visabron c (4–4) cumulative 25 mg/kg, natalizumab 120 mg/kg i.p., Figure 3B)",Disease incidence vs EAE disease group ([1]; Figure 3C),"Cumulative neurological scores vs EAE/PBS group ([1]; at 35 days postimmunization, Figure 3D)","Inflammatory cell infiltration in spinal cord (H&E cell counting) ([1]; day 35, Figure 3F)","Increase in neurological score vs EAE group ([1]; onset (13–16 days) to 35 days postimmunization, i.p., visabron c (4–4) cumulative 25 mg/kg, natalizumab cumulative 120 mg/kg, Figure 3A)"
CSCC[C@@H]1NC(=O)[C@H]([C@@H](C)O)NC(=O)CN(C(=O)[C@@H](N)CCCCN)CCCCNC(=O)NCCCCN(CC(=O)N[C@@H](CC(C)C)C(N)=O)C(=O)[C@H](CC(=O)O)NC(=O)[C@H](CC(C)C)NC1=O [visabron c (4–4)] (H-K[Nlys]TMLD[Nlys]L-NH2; linker 2-7 via CO),25 to 40%,,,,,
natalizumab: clinical-grade monoclonal antibody anti-α4β1 produced by Biogen Co. [reference compound],,significantly decreased,lower disease incidence,significantly decreased,significantly reduced,significantly lower
